System: 945468-187-T-J3-PDC spheroids with HUVEC/MSC, viability
Test: Anticancer human tumor 945468-187-T-J3-PDC patient-derived rectal carcinoma cell line growth inhibition [PI3K]
Settings: for IC50: curve of first compound; for viability, T/C: stronger effect = lower value
In short: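 We assembled tumor spheroids that included a stromal compartment of HUVEC and MSCs, then exposed them to targeted agents alone and together with PI3K pathway inhibitors. Concentration series descended by half-log from clinically achievable Cmax levels. Viability served as the endpoint.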

[1] = second compound 0.0316 µM, first compound 0.0316 µM
[2] = second compound 0.0316 µM, first compound 0.1 µM
[3] = second compound 0.0316 µM, first compound 0.316 µM
[4] = second compound 0.0316 µM, first compound 1 µM
[5] = second compound 0.0316 µM, first compound 3.16 µM
[6] = second compound 0.0316 µM, first compound 10 µM
[7] = second compound 0.1 µM, first compound 0.0316 µM
[8] = second compound 0.1 µM, first compound 0.1 µM
[9] = second compound 0.1 µM, first compound 0.316 µM
[10] = second compound 0.1 µM, first compound 1 µM
[11] = second compound 0.1 µM, first compound 3.16 µM
[12] = second compound 0.1 µM, first compound 10 µM
[13] = second compound 0.316 µM, first compound 0.0316 µM
[14] = second compound 0.316 µM, first compound 0.1 µM
[15] = second compound 0.316 µM, first compound 0.316 µM
[16] = second compound 0.316 µM, first compound 1 µM
[17] = second compound 0.316 µM, first compound 3.16 µM
[18] = second compound 0.316 µM, first compound 10 µM
[19] = second compound 1 µM, first compound 0.0316 µM
[20] = second compound 1 µM, first compound 0.1 µM
[21] = second compound 1 µM, first compound 0.316 µM
[22] = second compound 1 µM, first compound 1 µM
[23] = second compound 1 µM, first compound 3.16 µM
[24] = second compound 1 µM, first compound 10 µM
[25] = second compound 3.16 µM, first compound 0.0316 µM
[26] = second compound 3.16 µM, first compound 0.1 µM
[27] = second compound 3.16 µM, first compound 0.316 µM
[28] = second compound 3.16 µM, first compound 1 µM
[29] = second compound 3.16 µM, first compound 3.16 µM
[30] = second compound 3.16 µM, first compound 10 µM
[31] = second compound 10 µM, first compound 0.0316 µM
[32] = second compound 10 µM, first compound 0.1 µM
[33] = second compound 10 µM, first compound 0.316 µM
[34] = second compound 10 µM, first compound 1 µM
[35] = second compound 10 µM, first compound 3.16 µM
[36] = second compound 10 µM, first compound 10 µM
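Also: spheroids exposed to agents for 7 days before viability read.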
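For viability, T/C in this document: 100% = DMSO vehicle control viability.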

Structure (SMILES): C=CC(=O)N1CCN(c2nc(=O)n(-c3c(C)ccnc3C(C)C)c3nc(-c4c(O)cccc4F)c(F)cc23)C(C)C1 (stereo unspecified) + Cc1nc(NC(=O)N2CCCC2C(N)=O)sc1-c1ccnc(C(C)(C)C(F)(F)F)c1
- IC50 (second compound 0.0316 µM): > 10 µM
- IC50 (second compound 0.1 µM): > 10 µM
- IC50 (second compound 0.316 µM): > 10 µM
- IC50 (second compound 1 µM): > 10 µM
- IC50 (second compound 3.16 µM): > 10 µM
- IC50 (second compound 10 µM): > 10 µM
- viability, T/C [1]: 106%
- viability, T/C [2]: 108%
- viability, T/C [3]: 102%
- viability, T/C [4]: 108%
- viability, T/C [5]: 110%
- viability, T/C [6]: 114%
- viability, T/C [7]: 108%
- viability, T/C [8]: 99.8%
- viability, T/C [9]: 103%
- viability, T/C [10]: 109%
- viability, T/C [11]: 114%
- viability, T/C [12]: 99%
- viability, T/C [13]: 103%
- viability, T/C [14]: 102%
- viability, T/C [15]: 100%
- viability, T/C [16]: 115%
- viability, T/C [17]: 105%
- viability, T/C [18]: 98.6%
- viability, T/C [19]: 126%
- viability, T/C [20]: 118%
- viability, T/C [21]: 102%
- viability, T/C [22]: 123%
- viability, T/C [23]: 122%
- viability, T/C [24]: 107%
- viability, T/C [25]: 110%
- viability, T/C [26]: 109%
- viability, T/C [27]: 112%
- viability, T/C [28]: 108%
- viability, T/C [29]: 113%
- viability, T/C [30]: 115%
- viability, T/C [31]: 71.1%
- viability, T/C [32]: 64.5%
- viability, T/C [33]: 58.3%
- viability, T/C [34]: 67.5%
- viability, T/C [35]: 90.8%
- viability, T/C [36]: 79.1%

Structure (SMILES): CC(Cn1ccc(-c2ccc(C#N)c(Cl)c2)n1)NC(=O)c1cc(C(C)O)[nH]n1 (stereo unspecified) + CC(Nc1ncnc2nc[nH]c12)c1cc2cccc(Cl)c2c(=O)n1-c1ccccc1
- IC50 (second compound 0.0316 µM): > 10 µM
- IC50 (second compound 0.1 µM): > 10 µM
- IC50 (second compound 0.316 µM): > 10 µM
- IC50 (second compound 1 µM): > 10 µM
- IC50 (second compound 3.16 µM): > 10 µM
- IC50 (second compound 10 µM): > 10 µM
- viability, T/C [1]: 93.4%
- viability, T/C [2]: 104%
- viability, T/C [3]: 126%
- viability, T/C [4]: 91.3%
- viability, T/C [5]: 125%
- viability, T/C [6]: 94%
- viability, T/C [7]: 91.1%
- viability, T/C [8]: 95.5%
- viability, T/C [9]: 89.5%
- viability, T/C [10]: 91.4%
- viability, T/C [11]: 114%
- viability, T/C [12]: 105%
- viability, T/C [13]: 95.5%
- viability, T/C [14]: 100%
- viability, T/C [15]: 118%
- viability, T/C [16]: 97.9%
- viability, T/C [17]: 101%
- viability, T/C [18]: 106%
- viability, T/C [19]: 87.8%
- viability, T/C [20]: 108%
- viability, T/C [21]: 98.1%
- viability, T/C [22]: 93%
- viability, T/C [23]: 104%
- viability, T/C [24]: 94.8%
- viability, T/C [25]: 94.8%
- viability, T/C [26]: 102%
- viability, T/C [27]: 96.5%
- viability, T/C [28]: 112%
- viability, T/C [29]: 113%
- viability, T/C [30]: 110%
- viability, T/C [31]: 122%
- viability, T/C [32]: 99.1%
- viability, T/C [33]: 98.2%
- viability, T/C [34]: 96.7%
- viability, T/C [35]: 104%
- viability, T/C [36]: 91.2%

Structure (SMILES): C#Cc1c(F)ccc2cc(O)cc(-c3ncc4c(N5CC6CCC(C5)N6)nc(OCC56CCCN5CC(F)C6)nc4c3F)c12 (stereo unspecified) + Cc1nc(NC(=O)N2CCCC2C(N)=O)sc1-c1ccnc(C(C)(C)C(F)(F)F)c1
- IC50 (second compound 0.0316 µM): > 10 µM
- IC50 (second compound 0.1 µM): > 10 µM
- IC50 (second compound 0.316 µM): > 10 µM
- IC50 (second compound 1 µM): > 10 µM
- IC50 (second compound 3.16 µM): 7.25 µM
- IC50 (second compound 10 µM): 0.464 µM
- viability, T/C [1]: 96.8%
- viability, T/C [2]: 101%
- viability, T/C [3]: 95.4%
- viability, T/C [4]: 107%
- viability, T/C [5]: 127%
- viability, T/C [6]: 119%
- viability, T/C [7]: 105%
- viability, T/C [8]: 115%
- viability, T/C [9]: 101%
- viability, T/C [10]: 113%
- viability, T/C [11]: 132%
- viability, T/C [12]: 115%
- viability, T/C [13]: 109%
- viability, T/C [14]: 105%
- viability, T/C [15]: 97.6%
- viability, T/C [16]: 113%
- viability, T/C [17]: 134%
- viability, T/C [18]: 118%
- viability, T/C [19]: 114%
- viability, T/C [20]: 110%
- viability, T/C [21]: 109%
- viability, T/C [22]: 112%
- viability, T/C [23]: 127%
- viability, T/C [24]: 106%
- viability, T/C [25]: 107%
- viability, T/C [26]: 110%
- viability, T/C [27]: 111%
- viability, T/C [28]: 103%
- viability, T/C [29]: 80.9%
- viability, T/C [30]: 38%
- viability, T/C [31]: 70.4%
- viability, T/C [32]: 59.9%
- viability, T/C [33]: 50%
- viability, T/C [34]: 47.8%
- viability, T/C [35]: 26.9%
- viability, T/C [36]: 9.1%

Source: PubChem BioAssay AID1963968 (Molecular Pharmacology Branch, DTP, NCI, 2024)
